# Experimental data: the supplement of paper PMC10307832
# Assays:
# Assay in all cases: relative viability (nuclei count vs DMSO), 5 days (fraction); higher = more cells survive
# [1] = compound: O=C1NC(=O)[C@@H](c2cn3c4c(cccc24)CCC3)[C@@H]1c1c[nH]c2ccccc12 [Tivantinib] + Cc1nc(Nc2ncc(C(=O)Nc3c(C)cccc3Cl)s2)cc(N2CCN(CCO)CC2)n1 [Dasatinib] (partner 0.075 µM)
# How it was run: (§1)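 Five library-drug doses in √10 steps were combined with a fixed anchor-drug dose, or a single drug was given alone, by pin tool to lung cancer cell lines in 1536-well plates the day after seeding. Nuclei were stained and counted after 5 days. Relative viability is the nuclei count in treated wells over that in vehicle wells, taken as the median of duplicate plates.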
# [2] = compound: CC1(COc2ccc3c(c2)ncn3-c2ccc3cccc(N4CCC(N)CC4)c3n2)COC1 [Crenolanib] + C[C@@H](Oc1cc(-c2cnn(C3CCNCC3)c2)cnc1N)c1c(Cl)ccc(F)c1Cl [Crizotinib] (partner 1 µM)
# How it was run: as §1
# [3] = compound: O=C1NC(=O)[C@@H](c2cn3c4c(cccc24)CCC3)[C@@H]1c1c[nH]c2ccccc12 [Tivantinib] + CCNC(=O)c1noc(-c2cc(C(C)C)c(O)cc2O)c1-c1ccc(CN2CCOCC2)cc1 [Luminespib] (partner 0.01 µM)
# How it was run: as §1
# [4] = compound: O=C1NC(=O)[C@@H](c2cn3c4c(cccc24)CCC3)[C@@H]1c1c[nH]c2ccccc12 [Tivantinib] + CC1(C)CCC(c2ccc(Cl)cc2)=C(CN2CCN(c3ccc(C(=O)NS(=O)(=O)c4ccc(N[C@H](CCN5CCOCC5)CSc5ccccc5)c(S(=O)(=O)C(F)(F)F)c4)cc3)CC2)C1 [Navitoclax] (partner 0.5 µM)
# How it was run: as §1
Cell Line,relative viability ([1]; first compound 0.01 µM),relative viability ([1]; first compound 0.03162 µM),relative viability ([1]; first compound 0.1 µM),relative viability ([1]; first compound 0.3162 µM),relative viability ([2]; first compound 0.01 µM),relative viability ([2]; first compound 0.03162 µM),relative viability ([2]; first compound 0.1 µM),relative viability ([2]; first compound 0.3162 µM),relative viability ([2]; first compound 1 µM),relative viability ([3]; first compound 0.01 µM),relative viability ([3]; first compound 0.03162 µM),relative viability ([3]; first compound 0.1 µM),relative viability ([3]; first compound 0.3162 µM),relative viability ([4]; first compound 0.01 µM),relative viability ([4]; first compound 0.03162 µM),relative viability ([4]; first compound 0.1 µM),relative viability ([4]; first compound 0.3162 µM)
201T,0.562,0.566,0.547,0.554,1.04,1.02,1.01,1.04,0.976,1.07,1.05,1.01,1.09,1.12,1.17,1.17,1.18
A549,–,–,–,–,0.853,0.76,0.769,0.99,0.717,–,–,–,–,1.28,1.15,1.19,1.2
A-427,0.677,0.731,0.712,0.686,0.854,0.946,0.804,0.87,1.02,0.971,0.873,0.899,0.76,0.893,0.882,0.924,0.951
ABC-1,0.629,0.742,0.566,0.516,1.01,0.883,1.13,1.01,1.19,0.43,0.944,0.339,0.675,–,–,–,–
BEN,0.293,0.308,0.382,0.359,0.89,0.839,0.863,0.763,0.847,0.361,0.262,0.232,0.385,0.0556,0.0502,0.07,0.0718
CAL-12T,0.479,0.499,0.403,0.238,0.66,0.709,0.704,0.816,0.787,0.506,0.756,0.43,0.259,1.2,1.3,1.16,1.03
COR-L23,0.498,0.542,0.48,0.5,0.678,0.722,0.577,0.718,0.667,0.625,0.685,0.661,0.757,1.18,1.09,0.998,1.19
COR-L 105,0.42,0.287,0.334,0.216,0.845,0.604,0.731,0.838,0.73,0.708,0.835,0.873,0.742,0.856,0.867,0.748,0.626
Calu-6,–,–,–,–,0.812,0.814,0.787,0.854,0.835,–,–,–,–,0.866,0.996,0.807,0.716
ChaGo-K-1,0.584,0.604,0.612,0.564,1.16,1.17,1.17,1.06,1.09,0.679,0.539,0.576,0.597,1.11,0.845,0.97,1.1
EBC-1,–,–,–,–,0.18,0.198,0.188,0.134,0.197,–,–,–,–,0.505,0.46,0.414,0.293
EKVX,0.615,0.431,0.618,0.315,1.06,0.756,0.899,1.06,1,0.997,0.927,0.938,–,0.996,0.953,0.929,0.433
EMC-BAC-2,0.35,0.307,0.183,0.343,0.757,0.774,0.795,0.791,0.775,1.17,1.17,1.18,1.08,1.14,1.12,1.18,1.05
EPLC-272H,0.409,0.343,0.293,0.176,–,0.855,0.877,0.918,1.01,0.374,0.23,0.431,0.19,1.12,1.27,1.05,1.01
H3255,0.35,0.38,0.361,–,1.07,0.806,0.889,0.85,0.825,0.934,0.811,0.741,–,0.559,0.564,0.508,–
HARA,0.293,0.302,0.299,0.225,1.24,1,0.938,0.924,1,0.909,0.592,0.738,0.689,1.14,1.13,1.12,1.14
HCC-15,0.609,0.591,0.587,0.639,0.944,0.815,0.847,0.8,0.727,0.246,0.285,0.456,0.289,0.728,0.628,0.684,0.698
HCC-44,–,–,–,–,0.823,0.84,0.739,0.881,0.848,1.13,1,0.954,0.634,0.971,0.935,1.06,0.872
HCC-78,0.416,0.376,0.378,0.377,0.371,0.367,0.393,0.34,0.31,–,–,–,–,0.853,0.683,0.8,0.3
HCC-366,0.629,0.594,0.495,0.681,0.487,0.466,0.481,1.04,0.462,–,–,–,–,0.951,1.14,1.03,1.07
HCC-827,0.237,0.295,0.375,0.131,0.938,0.885,0.932,0.964,0.884,0.472,0.661,0.699,0.378,1.04,1.05,0.926,1.02
